{
  "source": "patent US11571446B2",
  "about": "“Gut microbiota and treatment of cancer” (Sanford Burnham Prebys Medical Discovery Institute, priority 2016, dated 2023)",
  "key": {"[1]": {"test_system": "tumor growth", "assay": "Tumor growth in Rnf5−/− mice treated with chemical chaperone", "type": "in vivo, mouse", "details": "treatment to alleviate ER stress", "excerpt": "To understand the mechanism by which altered function of Rnf5^−/− mice might influence the anti-tumor immune response, changes in the intestinal epithelial cells (IECs) were examined, which cells play critical roles in both innate and adaptive immunity."}, "[2]": {"test_system": "tumor growth", "assay": "Fecal microbiota analysis of Rnf5−/− and WT tumor bearing mice", "type": "in vivo, mouse", "details": "Rnf5−/− vs WT microbiota", "method": "The fecal microbiota of Rnf5^−/− and WT mice were analyzed. […] Of those, increased relative abundance of several bacterial taxa (including Bacteroides spp., B. acidifaciens, B. chinchilla, B. xylanisolvens, Parabacteroides merdae, Porphyromonas canis, Rickenella microfusus) and decreased abundance of others (including unclassified Bifidobacterium spp., B. choerinum, Odoribacter denticanis, Parabacteroides goldsteinii, unclassified Olivibacter, Parapedobacter koreensis) typified the microbiome of Rnf5^−/− mice bearing tumors, compared with the WT genotype.\nThe fecal microbiota of Rnf5−/− and WT mice were further analyzed. Marked differences in the microbial profiles were observed, highlighting differences in community structure depicted in principle component analysis that distinctly segregated Rnf5^−/− from WT microbiota. Analysis of microbiota allowed the identification of 42 phylotypes that distinguished Rnf5^−/− and WT microbiota in tumor bearing mice (FIG. 7). These phylotypes are dominated by a few taxonomic groups, the largest of which fall into the Clostridium cluster (37%). All but four of these may be assigned to Clostrium cluster IV or XIVa, known to be capable of producing butyrate that may influence Foxp3^+ Treg cells expansion. […]"}, "[3]": {"test_system": "SW1 cells", "assay": "Growth of SW1 melanoma in TLR4 mutant C3H/HeJ mice given mucin or inulin", "type": "in vivo, mouse", "excerpt": "(§1) FIG. 6A depicts growth of SW1 TLR4-mutant tumor cells in C3H/HeJ TLR4 mutant mice provided with control diet, alone or with supplemented mucin or inulin starting 14 days prior to tumor inoculation (n=10). FIG. 6B depicts growth of MC-38 tumors in C57BL/6 mice (n=10) that received, starting 14 days prior to tumor inoculation, control diet, alone or with supplemented mucin or inulin. FIG. 6C depicts tumor volume in C57BL/6 mice (n=10 per group) injected (s.c.) with a melanoma cell line (N-Ras mutant; 1×10^6 cells). The mice were provided control or inulin or mucin supplemented diet. When tumors reached a volume of […], mice were treated with MEKi (PD325901) administered by gavage (10 mg/kg, daily), alone or in combination with inulin or mucin, as indicated. Tumor volume was assessed every 4 days.\nTo determine whether TLR4, the receptor for bacterial lipopolysaccharides, might be involved in the mucin-induced anti-tumor immune phenotype, the growth of mouse melanoma SW1 cells was examined in Tlr4^−/− C3H/HeJ mice."}, "[4]": {"test_system": "tumor-infiltrating immune cells", "assay": "Tumor-infiltrating immune cells and immune gene transcription in mucin- or inulin-fed mice", "type": "in vivo, mouse", "excerpt": "To test this directly it was investigated whether administration of mucin to WT mice could phenocopy Rnf5^−/− mice, in terms of tumor growth, immune response and gut microbiota composition. […] This prompted us to use machine learning to identify phylotypes that best distinguished WT (non-attenuated tumor growth) from Rnf5^−/− and WT mice treated with mucin or inulin (attenuated tumor growth). […] The immune status of mucin and inulin-fed WT mice also shifted to resemble that of Rnf5′ mice."}, "[5]": {"test_system": "MC-38 cells", "assay": "Growth of MC-38 colon cancer tumors in C57BL/6 mice given mucin or inulin", "type": "in vivo, mouse", "excerpt": "as §1\nNext, it was determined whether mucin or inulin are also able to impact growth of colon cancer cells, representative of a different tumor type. Growth of MC-38 cells injected to WT mice was attenuated by inulin but not mucin (FIG. 6B). […] Corresponding increase in CD4, CD8, CD45 and DC, including pDC and mDC and MHC-I expression on DC, was identified in tumors subjected to the MEKi+inulin treatment."}, "[6]": {"test_system": "YUMM1.5 melanoma cells", "assay": "YUMM1.5 melanoma tumor growth in WT or Rnf5−/− mice given mucin or inulin", "type": "in vivo, mouse", "details": "3% mucin in drinking water or 15% inulin diet from 14 days prior to tumor inoculation", "excerpt": "(§2) FIG. 4A depicts plots of human fecal samples cultivated under anaerobic conditions in chemically defined medium with or without exogenous carbohydrate (n=6). Relative abundance of taxa encoding extensive glycosyl hydrolase activities. Cultures with no exogenous sugar were compared to cultures with N-acetyl-mannosamine, galactomannan and porcine gastric mucin. […] FIG. 4C depicts computer simulation identifies the uptake rates of mucin and inulin degradation products in the 2 media predicted to sustain the WT and Rnf5^−/− communities, showing higher predicted consumption of mucin and inulin products in the Rnf5^−/− community. FIG. 4D depicts YUMM1.5 tumor growth in WT or Rnf5^−/− mice provided with 0 or 3% mucin in drinking water starting 14 days prior to tumor inoculation (n=15). FIG. 4E depicts growth of Yumm1.5 tumors in WT or Rnf5^−/− received a control diet or a diet enriched 15% inulin 14 days prior to and during tumor inoculation (n=15). FIG. 4F depicts fold-changes of median abundances between Rnf5^−/−, mucin and inulin treated and WT mice, for 30 taxa that discriminate tumor attenuating and non-attenuating phenotypes.\nTo test this directly it was investigated whether administration of mucin to WT mice could phenocopy Rnf5^−/− mice, in terms of tumor growth, immune response and gut microbiota composition. […]"}, "[7]": {"test_system": "human fecal samples", "assay": "Anaerobic cultivation of fecal samples with a sole carbohydrate source", "type": "cell-based", "details": "in vitro, unpublished results", "excerpt": "as §2\nThe differences in the gut microbiota of Rnf5^−/− and WT mice before and during tumor formation highlighted a functionally coherent group of species that define a food web enriched for species encoding extensive glycosyl hydrolase activities. […]"}},
  "note": "“Also recorded” adds a separate entry of the source.",
  "data": [
    {"compound": "O=C(O)CCCc1ccccc1", "note": "[4-phenylbutyrate]", "values": [
      {"measurement": "tumor growth", "setting": "[1]", "result": "did not affect tumor growth"}
    ]},
    {"compound": "Clostridium clostridioforme", "values": [
      {"measurement": "association of bacterial strain with tumor growth", "setting": "[2]", "result": "associated with inhibition of tumor growth"}
    ]},
    {"compound": "inulin", "values": [
      {"measurement": "melanoma growth", "setting": "[3]; SW1 cells in Tlr4−/− C3H/HeJ mice, supplemented diet from 14 days prior to inoculation", "result": "failed to significantly attenuate melanoma growth"},
      {"measurement": "CD8+ T cells and TNF-α-producing tumor-infiltrating CD4+ T cells", "setting": "[3]; SW1 tumors in Tlr4−/− C3H/HeJ mice", "result": "not"},
      {"measurement": "tumor infiltrating immune cell phenotype", "setting": "[4]; WT mice, tumor", "result": "increased tumor infiltration of immune cells"},
      {"measurement": "transcription of immune-related genes", "setting": "[4]; shift to that seen in Rnf5−/− mice, albeit to a lower extent", "result": "induced a shift"},
      {"measurement": "infiltration of MHC-I and MHC-I on DC cells", "setting": "[5]; MC-38 tumors", "result": "increase in the infiltration"},
      {"measurement": "growth of MC-38 cells", "setting": "[5]; WT C57BL/6 mice, supplemented diet from 14 days prior to inoculation", "result": "attenuated"},
      {"measurement": "melanoma tumor growth", "setting": "[6]", "result": "attenuate melanoma growth; also recorded: reduced tumor growth"},
      {"measurement": "melanoma tumor growth", "setting": "[6]; listed as Inulin", "result": "effective inhibition of melanoma growth"},
      {"measurement": "communities generated in fecal cultivation", "setting": "[7]", "result": "generated communities similar to that of gastric mucin"}
    ]}
  ]
}
